Consider 1 compound from article PMC10938454, “Preparation, Characterization, Antioxidant Activities, and Determination of Anti-Alzheimer Effects of PLGA-Based DDSs Containing Ferulic Acid” (ACS Omega, 2024).

Assay [1] deals with T1, AChE (acetylcholinesterase) (Electrophorus electricus, UniProt O42275).
T1 construct: native enzyme isolated from electric eel, type VI-S (printed 'type VIS')
In words: Ellman assay, […] nm, microplate. It is filed as biochemical. The settings on record: read-out: IC50 (μg.mL^-1) (converted). In general terms: Ellman's reagent forms a yellow product with free thiols.

In assay [2] the target is T2, BuChE (butyrylcholinesterase) (Equus caballus, UniProt P81908).
T2 construct: gene BCHE; native enzyme isolated from horse serum
T2 sequence (P81908 whole entry): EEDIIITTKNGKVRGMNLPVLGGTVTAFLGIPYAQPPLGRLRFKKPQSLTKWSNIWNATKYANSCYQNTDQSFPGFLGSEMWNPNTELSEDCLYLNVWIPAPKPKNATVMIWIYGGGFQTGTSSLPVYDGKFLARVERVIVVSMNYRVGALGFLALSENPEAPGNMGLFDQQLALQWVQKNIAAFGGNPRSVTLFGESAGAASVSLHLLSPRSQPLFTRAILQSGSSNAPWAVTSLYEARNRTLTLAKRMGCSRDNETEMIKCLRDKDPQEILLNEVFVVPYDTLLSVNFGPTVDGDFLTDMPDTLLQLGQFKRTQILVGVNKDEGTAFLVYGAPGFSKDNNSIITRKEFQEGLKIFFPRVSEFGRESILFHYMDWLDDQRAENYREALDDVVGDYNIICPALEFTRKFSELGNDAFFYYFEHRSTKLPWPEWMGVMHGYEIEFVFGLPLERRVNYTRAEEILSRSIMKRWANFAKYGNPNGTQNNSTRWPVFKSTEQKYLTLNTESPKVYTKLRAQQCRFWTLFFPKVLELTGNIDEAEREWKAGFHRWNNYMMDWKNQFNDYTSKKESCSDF
In words: Ellman assay, […] nm, microplate. It is filed as biochemical. The settings on record: read-out: IC50 (μg.mL^-1) (converted).

T1 sequence (O42275 24-633): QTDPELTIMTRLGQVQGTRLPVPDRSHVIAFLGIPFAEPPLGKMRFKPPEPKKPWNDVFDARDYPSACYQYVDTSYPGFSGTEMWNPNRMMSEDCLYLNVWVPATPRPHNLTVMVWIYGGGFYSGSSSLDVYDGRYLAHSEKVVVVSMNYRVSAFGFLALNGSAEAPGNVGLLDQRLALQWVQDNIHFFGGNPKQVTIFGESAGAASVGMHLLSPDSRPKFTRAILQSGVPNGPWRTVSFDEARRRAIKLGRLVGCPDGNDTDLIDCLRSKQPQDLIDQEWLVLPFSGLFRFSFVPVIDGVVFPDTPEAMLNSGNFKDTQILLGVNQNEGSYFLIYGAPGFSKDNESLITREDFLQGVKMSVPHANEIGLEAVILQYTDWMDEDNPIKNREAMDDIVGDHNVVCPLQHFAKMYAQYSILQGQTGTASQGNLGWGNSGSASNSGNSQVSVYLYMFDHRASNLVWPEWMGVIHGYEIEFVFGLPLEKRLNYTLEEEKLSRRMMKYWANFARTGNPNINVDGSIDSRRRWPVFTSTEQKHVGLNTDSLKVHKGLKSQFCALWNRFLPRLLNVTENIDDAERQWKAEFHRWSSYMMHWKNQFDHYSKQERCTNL

With `COc1cc(/C=C/C(=O)O)ccc1O` [ferulic acid], the IC50 was 2100 µM in assay [1] and 2680 µM in assay [2].

Broadly, the IC50 is the midpoint of a concentration-inhibition curve.
